# From patent US20090203738A1, “Pharmaceutical Composition for Treating Bulimia and Depression Arising from Bulimia” (priority 2005, published 2009)
# Structures can show the parent of a compound that is named as a salt. Where two headings read alike, the source gives them in different places.
# Columns and labels:
# [1] = tested on: patient with excessive eating and vomiting (bulimia) and depressive state; conditions: patient history: drug therapy and spiritual therapy at three neurological hospitals before the first examination; cited from earlier work
# [2] = tested on: patient with excessive eating and vomiting (bulimia), insensitive to 60 mg of fluoxetine
# Description: An excessive eating started when they were the third year class ([…]) of high school and it is still continuing. At the first medical examination, they were unable to go to university.
# bulimia = conditions: cited from earlier work
# [3] = tested on: patients suffering from light to medium Alzheimer's disease; conditions: 24-week, double-blind, placebo-controlled trial; cited from earlier work
structure (smiles),measurement,setting,value
Fc1ccc([C@@H]2CCNC[C@H]2COc2ccc3c(c2)OCO3)cc1 [Paxil],improvement under earlier drug therapy,[1],no improvement was noted
CNCCC(Oc1ccc(C(F)(F)F)cc1)c1ccccc1 (stereo not shown) [fluoxetine],improvement in excessive eating,[2]; 20 mg of fluoxetine for two weeks,no improvement in excessive eating was noted
same,improvement in excessive eating,[2]; fluoxetine increased to 40 mg,no improvement was noted yet
same,amount and frequency of excessive eating,"[2]; fluoxetine increased up to 60 mg, for two weeks",no decrease in amount and frequency of excessive eating were noted
same,depression,"[2]; fluoxetine up to 60 mg, six weeks from the initiation of the therapy",No change in depression was noted
same,rate of improvement,"bulimia; bulimia, 60 mg per day",about 60%
OC1(c2ccc(Cl)cc2)c2ccccc2C2=NCCN21 (stereo not shown) [mazindol],side effects,bulimia; applied for bulimia,"excitation, frustration, load on cardiovascular system, dysuria and others"
O=C1CN=C(c2ccccc2Cl)c2cc([N+](=O)[O-])ccc2N1 [Rivotril],improvement under earlier drug therapy,[1],no improvement was noted
COCCCC/C(=N\OCCN)c1ccc(C(F)(F)F)cc1 [fluvoxamine],improvement under earlier drug therapy,[1],no improvement was noted
CN1C(=O)CN=C(c2ccccc2)c2cc(Cl)ccc21 [diazepam],improvement under earlier drug therapy,[1],no improvement was noted
Cc1nc2n(c(=O)c1CCN1CCC(c3noc4cc(F)ccc34)CC1)CCCC2 [Risperdal],improvement under earlier drug therapy,[1],no improvement was noted
CCCC(CCC)C(=O)[O-].[Na+] [sodium valproate],improvement under earlier drug therapy,[1],no improvement was noted
"COc1cc2c(cc1OC)C(=O)C(CC1CCN(Cc3ccccc3)CC1)C2 (stereo not shown) [donepezil hydrochloride, 1-benzyl-4-[(5,6-dimethoxy-1-indanon)-2-yl]methylpiperidine]",cognitive ability and general function,[3],improves the cognitive ability and general function
